# Measured values taken from ChEMBL document CHEMBL5247615, “Discovery of 5-(3,4-dihydroxybenzylidene)-1,3-dimethylpyrimidine- 2,4,6(1H,3H,5H)-trione as a novel and effective cardioprotective agent via dual anti-inflammatory and anti-oxidative activities” (Eur J Med Chem, 2022).
# Activity calls are given as the source filed them. No cut-off for these calls is given here.
# Experiments:
# H9c2 [1] = assay: Cardioprotective activity against hydrogen peroxide induced cell injury in rat H9c2 cells at 5 to 20 uM pretreated with compound for 24 hrs followed by hydrogen peroxide addition for 2 hrs by MTT assay; assay type: functional, cell-based; details: dose 5-20 µM, time 26.0 hrs
# H9c2 [2] = assay: Cardioprotective activity against hydrogen peroxide induced cell injury in rat H9c2 cells assessed as increase in cell viability at 5 to 20 uM measured after 24 hrs by MTT assay; assay type: functional, cell-based; details: dose 5-20 µM
# H9c2 [3] = assay: Cardioprotective activity against hydrogen peroxide induced cell injury in rat H9c2 cells assessed as increase in cell viability at 5 uM measured after 24 hrs by MTT assay; assay type: functional
# H9c2 [4] = assay: Cardioprotective activity against hydrogen peroxide induced cell injury in rat H9c2 cells at 40 uM pretreated for 24 hrs followed by treatment with hydrogen peroxide for 2 hrs by MTT assay; assay type: functional, cell-based; details: time 26.0 hrs
# H9c2 [5] = assay: Cytotoxicity against rat H9c2 cells assessed as reduction in cell viability upto 100 uM measured after 24 hrs by MTT assay relative to control; assay type: toxicity, cell-based; details: h9c2, 24 h
# H9c2 [6] = assay: Cardioprotective activity against hydrogen peroxide induced cell injury in rat H9c2 cells assessed as reversal of abnormal cell morphology pretreated with compound for 24 hrs followed by treatment with hydrogen peroxide for 2 hrs; assay type: functional, cell-based; details: dose 5-20 µM, time 26.0 hrs
# H9c2 [7] = assay: Antioxidant activity in hydrogen peroxide induced rat H9c2 cells assessed as increase in SOD expression pretreated with compound for 24 hrs followed by treatment with hydrogen peroxide for 2 hrs; assay type: functional, cell-based; details: dose 5-20 µM, time 26.0 hrs
# H9c2 [8] = assay: Antiinflammatory activity in hydrogen peroxide induced rat H9c2 cells assessed as reversal of increase in NLRP-3 mRNA expression pretreated with compound for 24 hrs followed by treatment with hydrogen peroxide for 2 hrs; assay type: functional, cell-based; details: dose 5-20 µM, time 26.0 hrs
# Rattus norvegicus [9] = assay: Antiinflammatory activity in myocardial ischemia/reperfusion induced ip dosed Sprague-Dawley rat injury model assessed as decrease in NLRP3 protein expression in heart administered once a day for 2 weeks by Western blotting analysis; assay type: functional, organism-based; details: dose 5-20 mg/kg
# Rattus norvegicus [10] = assay: Cardioprotective activity in myocardial ischemia/reperfusion induced Sprague-Dawley rat injury model assessed as reduction in heart cardiac infarct size at 20 mg/kg, ip administered once a day for 2 weeks measured by Evans blue staining analysis (reference value: 46.8%); assay type: functional; set-up: scale not given: the % may be the effect or the level left
# Rattus norvegicus [11] = assay: Cardioprotective activity in myocardial ischemia/reperfusion induced ip dosed Sprague-Dawley rat injury model assessed as increase in heart LDH level administered once a day for 2 weeks; assay type: functional, organism-based; details: dose 5-20 mg/kg
# H9c2 [12] = assay: Cardioprotective activity against hydrogen peroxide induced cell injury in rat H9c2 cells assessed as reduction in loss of cell membrane integrity by measuring LDH level at 20 uM pretreated with compound for 24 hrs followed by treatment with hydrogen peroxide for 2 hrs relative to control; assay type: functional; set-up: scale not given: the % may be the effect or the level left
# H9c2 [13] = assay: Antiinflammatory activity in hydrogen peroxide induced rat H9c2 cells assessed as reversal of increase in IL-18 mRNA expression pretreated with compound for 24 hrs followed by treatment with hydrogen peroxide for 2 hrs; assay type: functional, cell-based; details: dose 5-20 µM, time 26.0 hrs
# Rattus norvegicus [14] = assay: Antiinflammatory activity in myocardial ischemia/reperfusion induced Sprague-Dawley rat injury model assessed as decrease in IL-1beta protein expression in heart at 10 mg/kg, ip administered once a day for 2 weeks by Western blotting analysis; assay type: functional, organism-based
# Rattus norvegicus [15] = assay: Cardioprotective activity in myocardial ischemia/reperfusion induced Sprague-Dawley rat injury model assessed as reduction in cardiac infarct size at 10 mg/kg, ip administered once a day for 2 weeks measured by Evans blue staining analysis (reference value: 46.8%); assay type: functional, Heart; set-up: scale not given: the % may be the effect or the level left
# H9c2 [16] = assay: Antioxidant activity in hydrogen peroxide induced rat H9c2 cells assessed as increase in HO-1 expression pretreated with compound for 24 hrs followed by treatment with hydrogen peroxide for 2 hrs; assay type: functional, cell-based; details: dose 5-20 µM, time 26.0 hrs
# H9c2 [17] = assay: Inhibition of autophagy in hydrogen peroxide induced rat H9c2 cells assessed as down regulation of p62 mRNA level at 5 to 20 uM pretreated with compound for 24 hrs followed by treatment with hydrogen peroxide for 2 hrs; assay type: functional, cell-based; details: dose 5-20 µM, time 26.0 hrs
# Rattus norvegicus [18] = assay: Cardioprotective activity in myocardial ischemia/reperfusion induced Sprague-Dawley rat injury model assessed as decrease in ST-segment elevation at 5 to 20 mg/kg, ip administered once a day for 2 weeks measured by electrocardiogram; assay type: functional, organism-based; details: dose 5-20 mg/kg
# Rattus norvegicus [19] = assay: Cardioprotective activity in myocardial ischemia/reperfusion induced ip dosed Sprague-Dawley rat injury model assessed as increase in heart AST level administered once a day for 2 weeks; assay type: functional, organism-based; details: dose 5-20 mg/kg
# Rattus norvegicus [20] = assay: Antiinflammatory activity in myocardial ischemia/reperfusion induced ip dosed Sprague-Dawley rat injury model assessed as decrease in IL-1beta protein expression in heart administered once a day for 2 weeks by Western blotting analysis; assay type: functional, organism-based; details: dose 5-20 mg/kg
# Rattus norvegicus [21] = assay: Antiinflammatory activity in myocardial ischemia/reperfusion induced ip dosed Sprague-Dawley rat injury model assessed as increase in CAT activity administered once a day for 2 weeks by Western blotting analysis; assay type: functional, organism-based; details: dose 5-20 mg/kg
# H9c2 [22] = assay: Cardioprotective activity against hydrogen peroxide induced cell injury in rat H9c2 cells assessed as reduction in loss of cell membrane integrity by measuring LDH level at 10 uM pretreated with compound for 24 hrs followed by treatment with hydrogen peroxide for 2 hrs relative to control; assay type: functional; set-up: scale not given: the % may be the effect or the level left
# Rattus norvegicus [23] = assay: Antioxidant activity in myocardial ischemia/reperfusion induced Sprague-Dawley rat injury model assessed as […] Nrf2 expression administered at 10 mg/kg, ip once a day for 2 weeks by Western blotting analysis; assay type: functional, organism-based
# Rattus norvegicus [24] = assay: Antiinflammatory activity in myocardial ischemia/reperfusion induced ip dosed Sprague-Dawley rat injury model assessed as decrease in MDA level administered once a day for 2 weeks by Western blotting analysis; assay type: functional, organism-based; details: dose 5-20 mg/kg
# H9c2 [25] = assay: Antioxidant activity in hydrogen peroxide induced rat H9c2 cells assessed as increase in Nrf2 expression pretreated with compound for 24 hrs followed by treatment with hydrogen peroxide for 2 hrs; assay type: functional, cell-based; details: dose 5-20 µM, time 26.0 hrs
# H9c2 [26] = assay: Cardioprotective activity against hydrogen peroxide induced cell injury in rat H9c2 cells assessed as reduction in loss of cell membrane integrity by measuring LDH level at 5 uM pretreated with compound for 24 hrs followed by treatment with hydrogen peroxide for 2 hrs relative to control; assay type: functional; set-up: scale not given: the % may be the effect or the level left
# H9c2 [27] = assay: Inhibition of autophagy in hydrogen peroxide induced rat H9c2 cells assessed as down regulation of […] mRNA level at 5 to 20 uM pretreated with compound for 24 hrs followed by treatment with hydrogen peroxide for 2 hrs; assay type: functional, cell-based; details: dose 5-20 µM, time 26.0 hrs
# H9c2 [28] = assay: Antiinflammatory activity in hydrogen peroxide induced rat H9c2 cells assessed as reversal of increase in IL-1beta mRNA expression pretreated with compound for 24 hrs followed by treatment with hydrogen peroxide for 2 hrs; assay type: functional, cell-based; details: dose 5-20 µM, time 26.0 hrs
structure (smiles),measurement,setting,value
Cc1ccc(O)c(C=C2C(=O)N(C)C(=O)N(C)C2=O)c1,Activity,H9c2 [1],Active
CN1C(=O)C(=Cc2ccccc2O)C(=O)N(C)C1=O,Activity,H9c2 [2],Active
same,Activity,H9c2 [3],40.3%
CN1C(=O)C(=Cc2cccc(O)c2O)C(=O)N(C)C1=O,Activity,H9c2 [1],Active
O=c1cc(-c2ccc(O)c(O)c2)oc2cc(O)cc(O)c12,Activity,H9c2 [4],Active
CN1C(=O)C(=Cc2ccc(O)c(O)c2)C(=O)N(C)C1=O,Activity,H9c2 [5],Non-Toxic
same,Activity,H9c2 [6],Dose-Dependent Effect
same,Activity,H9c2 [7],Dose-Dependent Effect
same,Activity,H9c2 [8],Dose-Dependent Effect
same,Activity,Rattus norvegicus [9],Active
same,Activity,Rattus norvegicus [10],22.3%
same,Activity,Rattus norvegicus [11],Dose-Dependent Effect
same,Activity,H9c2 [2],Active
same,Activity,H9c2 [12],60.7%
same,Activity,H9c2 [13],Dose-Dependent Effect
same,Activity,Rattus norvegicus [14],Active
same,Activity,Rattus norvegicus [15],32.3%
same,Activity,H9c2 [16],Dose-Dependent Effect
same,Activity,H9c2 [1],Active
same,inhibition,H9c2 [17],Active
same,Activity,Rattus norvegicus [18],Active
same,Activity,Rattus norvegicus [19],Dose-Dependent Effect
same,Activity,Rattus norvegicus [20],Active
same,Activity,Rattus norvegicus [21],Active
same,Activity,H9c2 [22],35.6%
same,Activity,Rattus norvegicus [23],inactive
same,Activity,Rattus norvegicus [24],Active
same,Activity,H9c2 [25],Dose-Dependent Effect
same,Activity,H9c2 [26],15.3%
same,inhibition,H9c2 [27],Active
same,Activity,H9c2 [3],77.5%
same,Activity,H9c2 [28],Dose-Dependent Effect
COCCc1ccc(OCC(O)CNC(C)C)cc1 (stereo not drawn),Activity,H9c2 [4],Active
